Data as given in patent US7538123B2, “Indole derivative having piperidine ring” (Eisai R & D Management Co., Ltd., priority 2004, dated 2009).
Like-named read-outs stand apart in the source and are kept apart here.

Biological target: T1, serotonin 1A receptor (Mus musculus, UniProt Q64264)
T1 construct: into the rectum of CD-1 (ICR) male mice (25-45 g); from tissue; host or cells: living CD-1 (ICR) male mice (whole animal)
T1 sequence (Q64264 1-421): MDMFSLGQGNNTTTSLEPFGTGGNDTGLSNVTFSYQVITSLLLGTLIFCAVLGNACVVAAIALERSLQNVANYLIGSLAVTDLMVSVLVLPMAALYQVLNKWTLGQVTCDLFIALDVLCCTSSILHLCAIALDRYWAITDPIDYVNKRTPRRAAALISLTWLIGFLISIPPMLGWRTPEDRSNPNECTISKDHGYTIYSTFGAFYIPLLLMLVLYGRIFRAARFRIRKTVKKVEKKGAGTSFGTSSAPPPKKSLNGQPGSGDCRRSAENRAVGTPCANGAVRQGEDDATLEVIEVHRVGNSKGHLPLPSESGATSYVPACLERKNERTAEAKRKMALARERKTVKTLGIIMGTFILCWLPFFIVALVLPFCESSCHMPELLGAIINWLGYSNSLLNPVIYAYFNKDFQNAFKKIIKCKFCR
Experiment: Antagonistic effect on serotonin 1A receptor agonist-induced hypothermia in mouse
Format: in vivo
Conditions: sc
Protocol: (1) A thermistor probe was inserted at a depth of approximately 2 cm into the rectum of CD-1 (ICR) male mice (25-45 g), so as to measure the body temperature thereof. Body temperature is decreased by subcutaneous administration of serotonin 1A receptor agonist (8-hydroxy-dipropylaminotetralin) 0.5 mg/kg. Since a serotonin 1A antagonist inhibits such action, the antagonistic effect of a test substance to a serotonin 1A receptor was evaluated using the inhibitory effect of the hypothermia as an index. A test substance was administered 15 minutes before the administration of the serotonin 1A agonist. A serotonin 1A partial agonist alone decreases the body temperature, depending on the degree of the agonistic action thereof. In addition, it has a weak antagonistic effect on 8-hydroxy-dipropylaminotetralin-induced hypothermia. (2) Results

[1] = 15 minutes before 8-hydroxy-dipropylaminotetralin 0.5 mg/kg sc, inhibition of hypothermia, CD-1 (ICR) male mice, read-out: ED50

| ED50 [1] [mg/kg] | SMILES | ED50 [mg/kg] |
| --- | --- | --- |
| 0.4 | COc1cc2onc(C)c2cc1CCN1CCC(n2ccc3ccc(C(N)=O)cc32)CC1 [Compound 2, 1-{1-[2-(6-methoxy-3-methylbenzo[d]isoxazol-5-yl)ethyl]piperidin-4-yl}-1H-indole-6-carboxamide] | – |
| 0.1 | COc1cc2oc(C)nc2cc1CCN1CCC(n2ccc3ccc(C(N)=O)cc32)CC1 [Compound 4, 1-{1-[2-(6-methoxy-2-methylbenzoxazol-5-yl)ethyl]piperidin-4-yl}-1H-indole-6-carboxamide] | – |
| 0.35 | CCc1nc2cc(CCN3CCC(n4ccc5ccc(C(N)=O)cc54)CC3)c(OC)cc2o1 [Compound 6, 1-{1-[2-(2-ethyl-6-methoxybenzoxazol-5-yl)ethyl]piperidin-4-yl}-1H-indole-6-carboxamide] | – |
| 0.07 | COc1cc2nc(C)oc2cc1CCN1CCC(n2ccc3ccc(C(N)=O)cc32)CC1 [Compound 8, 1-{1-[2-(5-methoxy-2-methylbenzoxazol-6-yl)ethyl]piperidin-4-yl}-1H-indole-6-carboxamide] | – |
| 0.3 | COc1cc2c(cc1CCN1CCC(n3ccc4ccc(C(N)=O)cc43)CC1)C(=O)N(C)CCO2 [Compound 9, 1-{1-[2-(8-methoxy-4-methyl-5-oxo-2,3,4,5-tetrahydrobenzo[f][1,4]oxazepin-7-yl)ethyl]piperidin-4-yl}-1H-indole-6-carboxamide] | – |
| 0.3 | COc1cc2c(cc1CCN1CCC(n3ccc4ccc(C(N)=O)cc43)CC1)C(=O)CC(C)(C)O2 [Compound 24, 1-{1-[2-(7-methoxy-2,2-dimethyl-4-oxochroman-6-yl)ethyl]piperidin-4-yl}-1H-indole-6-carboxamide] | – |
| 0.25 | COc1cc2c(cc1CCN1CCC(n3ccc4ccc(C(N)=O)cc43)CC1)C(=O)CC2 [Compound 26, 1-{1-[2-(6-methoxy-3-oxoindan-5-yl)ethyl]piperidin-4-yl}-1H-indole-6-carboxamide] | – |
| 0.02 | COc1cc2nc(C)sc2cc1CCN1CCC(n2ccc3ccc(C(N)=O)cc32)CC1 [Compound 28, 1-{1-[2-(5-methoxy-2-methylbenzothiazol-6-yl)ethyl]piperidin-4-yl}-1H-indole-6-carboxamide] | – |
| 0.04 | COc1cc2c(cc1CCN1CCC(n3ccc4ccc(C(N)=O)cc43)CC1)OCCO2 [Compound 31, 1-{1-[2-(7-methoxy-2,3-dihydrobenz[1,4]dioxin-6-yl)ethyl]piperidin-4-yl}-1H-indole-6-carboxamide] | – |
| 0.12 | COc1cc2c(cc1CCN1CCC(n3ccc4ccc(C(N)=O)cc43)CC1)C(=O)N(C)CC2 [Compound 33, 1-{1-[2-(6-methoxy-2-methyl-1-oxo-1,2,3,4-tetrahydroisoquinolin-7-yl)ethyl]piperidin-4-yl}-1H-indole-6-carboxamide] | – |
| 0.37 | COc1ccc2c(c1CCN1CCC(n3ccc4ccc(C(N)=O)cc43)CC1)CCN(C)C2=O [Compound 34, 1-(1-(2-(6-methoxy-2-methyl-1-oxo-1,2,3,4-tetrahydroisoquinolin-5-yl)ethyl)piperidin-4-yl)-1H-indole-6-carboxamide] | – |
| 0.19 | CNC(=O)c1ccc2ccn(C3CCN(CCc4cc5c(cc4OC)CCN(C)C5=O)CC3)c2c1 [Compound 38, 1-{1-[2-(6-methoxy-2-methyl-1-oxo-1,2,3,4-tetrahydroisoquinolin-7-yl)ethyl]piperidin-4-yl}-N-methyl-1H-indole-6-carboxamide] | – |
| 0.26 | COc1cc2ccccc2cc1CCN1CCC(n2ccc3ccc(C(N)=O)cc32)CC1 [Compound 45, 1-{1-[2-(3-methoxynaphthalen-2-yl)ethyl]piperidin-4-yl}-1H-indole-6-carboxamide] | – |
| 0.28 | COc1ccc2c(c1CCN1CCC(n3ccc4ccc(C(N)=O)cc43)CC1)CCC2O (stereo not drawn) [Compound 49, 1-{1-[2-(1-hydroxy-5-methoxyindan-4-yl)ethyl]piperidin-4-yl}-1H-indole-6-carboxamide] | – |
| 0.5 | COc1cc2c(cc1CCN1CCC(n3ccc4ccc(C(N)=O)cc43)CC1)N(C(C)=O)CCC2 [Compound 52, 1-{1-[2-(1-acetyl-6-methoxy-1,2,3,4-tetrahydroquinolin-7-yl)ethyl]piperidin-4-yl}-1H-indole-6-carboxamide] | – |
| 0.3 | COc1cc2c(cc1CCN1CCC(n3ccc4ccc(C(N)=O)cc43)CC1)N(C)CCC2 [Compound 53, 1-{1-[2-(6-methoxy-1-methyl-1,2,3,4-tetrahydroquinolin-7-yl)ethyl]piperidin-4-yl}-1H-indole-6-carboxamide] | – |

Further lines, the compound ahead of its results:

| SMILES | ED50 [1] [mg/kg] | ED50 [mg/kg] |
| --- | --- | --- |
| COc1ccc2c(C)noc2c1CCN1CCC(n2ccc3ccc(C(N)=O)cc32)CC1 [Compound 1, 1-{1-[2-(6-methoxy-3-methylbenz[d]isoxazol-7-yl)ethyl]piperidin-4-yl}-1H-indole-6-carboxamide] | – | 0.3 |
| COc1ccc2nc(C)oc2c1CCN1CCC(n2ccc3ccc(C(N)=O)cc32)CC1 [Compound 3, 1-{1-[2-(6-methoxy-2-methylbenzoxazol-7-yl)ethyl]piperidin-4-yl}-1H-indole-6-carboxamide] | 0.18 | – |
| CCc1nc2ccc(OC)c(CCN3CCC(n4ccc5ccc(C(N)=O)cc54)CC3)c2o1 [Compound 5] | 0.24 | – |
| COc1ccc2oc(C)nc2c1CCN1CCC(n2ccc3ccc(C(N)=O)cc32)CC1 [Compound 7, 1-{1-[2-(5-methoxy-2-methylbenzoxazol-4-yl)ethyl]piperidin-4-yl}-1H-indole-6-carboxamide] | 0.38 | – |
| CNC(=O)c1ccc2ccn(C3CCN(CCc4c(OC)ccc5c4OC(C)(C)CC5=O)CC3)c2c1 [Compound 20, 1-{1-[2-(7-methoxy-2,2-dimethyl-4-oxochroman-8-yl)ethyl]piperidin-4-yl}-N-methyl-1H-indole-6-carboxamide] | 0.03 | – |
| COc1ccc2c(c1CCN1CCC(n3ccc4ccc(C(N)=O)cc43)CC1)OC(C)(C)CC2=O [Compound 22, 1-{1-[2-(7-methoxy-2,2-dimethyl-4-oxochroman-8-yl)ethyl]piperidin-4-yl}-1H-indole-6-carboxamide] | 0.1 | – |
| COc1ccc2c(c1CCN1CCC(n3ccc4ccc(C(N)=O)cc43)CC1)CCC2=O [Compound 25, 1-{1-[2-(5-methoxy-1-oxoindan-4-yl)ethyl]piperidin-4-yl}-1H-indole-6-carboxamide] | 0.1 | – |
| COc1ccc2sc(C)nc2c1CCN1CCC(n2ccc3ccc(C(N)=O)cc32)CC1 [Compound 27, 1-{1-[2-(5-methoxy-2-methylbenzothiazol-4-yl)ethyl]piperidin-4-yl}-1H-indole-6-carboxamide] | 0.42 | – |
| COc1ccc2ncccc2c1CCN1CCC(n2ccc3ccc(C(N)=O)cc32)CC1 [Compound 30, 1-{1-[2-(6-methoxyquinolin-5-yl)ethyl]piperidin-4-yl}-1H-indole-6-carboxamide] | 0.62 | – |
| COc1ccc2c(c1CCN1CCC(n3ccc4ccc(C(N)=O)cc43)CC1)OCCO2 [Compound 32, 1-{1-[2-(6-methoxy-2,3-dihydrobenz[1,4]dioxin-5-yl)ethyl]piperidin-4-yl}-1H-indole-6-carboxamide] | 0.04 | – |
| COc1ccc2c(=O)ccoc2c1CCN1CCC(n2ccc3ccc(C(N)=O)cc32)CC1 [Compound 35, 1-{1-[2-(7-methoxy-4-oxo-4H-chromen-8-yl)ethyl]piperidin-4-yl}-1H-indole-6-carboxamide] | 0.2 | – |
| COc1ccc2c(=O)c(C)c(C)oc2c1CCN1CCC(n2ccc3ccc(C(N)=O)cc32)CC1 [Compound 36, 1-{1-[2-(7-methoxy-2,3-dimethyl-4-oxo-4H-chromen-8-yl)ethyl]piperidin-4-yl}-1H-indole-6-carboxamide] | 0.2 | – |
| COc1ccc2ccccc2c1CCN1CCC(n2ccc3ccc(C(N)=O)cc32)CC1 [Compound 44, 1-{1-[2-(2-methoxynaphthalen-1-yl)ethyl]piperidin-4-yl}-1H-indole-6-carboxamide] | 0.41 | – |
| COc1ccc2c(c1CCN1CCC(n3ccc4ccc(C(N)=O)cc43)CC1)OCCC2O (stereo not drawn) [Compound 46, 1-{1-[2-(4-hydroxy-7-methoxychroman-8-yl)ethyl]piperidin-4-yl}-1H-indole-6-carboxamide] | 0.3 | – |
| COc1ccc2c(c1CCN1CCC(n3ccc4ccc(C(N)=O)cc43)CC1)OCCC2=O [Compound 47, 1-{1-[2-(7-methoxy-4-oxochroman-8-yl)ethyl]piperidin-4-yl}-1H-indole-6-carboxamide] | 0.21 | – |
| CNC(=O)c1ccc2ccn(C3CCN(CCc4c(OC)ccc5c4OC(C)(C)CC5O)CC3)c2c1 (stereo not drawn) [Compound 48, 1-{1-[2-(4-hydroxy-7-methoxy-2,2-dimethylchroman-8-yl)ethyl]piperidin-4-yl}-N-methyl-1H-indole-6-carboxamide] | – | 0.06 |
| COc1cc2cccnc2cc1CCN1CCC(n2ccc3ccc(C(N)=O)cc32)CC1 [Compound 51, 1-{1-[2-(6-methoxyquinolin-7-yl)ethyl]piperidin-4-yl}-1H-indole-6-carboxamide] | – | 0.66 |
